# Measured values taken from US20120035265A1, “COMPOSITIONS, METHODS, AND DEVICES FOR THE TREATMENT OF DYSMENORRHEA” (MediciNova, Inc., priority 2010, published 2012).
# Read-outs that look alike come from different tables or passages of the source.
# Legend:
# [1] = tested on: uterine muscle isolated from pregnant rats; experiment: Interaction of MN-221 and β-adrenoceptor antagonists on spontaneous contraction of uterine muscle isolated from pregnant rats (Schild regression); format: cell-based, rat; details: Rattus norvegicus
# Procedure: The experimental operation of this study was as reported by T. Kawarabayashi et al.^4. After each SD-strain rat on Day 21 of pregnancy was exsanguinated to death, the uterus was isolated to prepare 8 myometrial samples (about 4 mm×10 mm) in the direction of the longitudinal muscle, with the adhesion to the placenta being avoided. Each myometrial sample was suspended with a load of about 1.0 g in an organ bath containing 10 mL of the Locke-Ringer solution at 37° C. […] After the suspended samples became stable for the amplitude and frequency of spontaneous contraction, each antagonist or distilled water was added to the bath to pretreat them for about 15 minutes. […] The contractile force of each sample was outputted through a force displacement transducer to a strain pressure amplifier and recorded with a rectigraph.
# Any variable point (peak) with amplitude (tension) of 0.2 g or lower was excluded from analysis. Samples meeting any of the following criteria were rejected or removed from analysis.
# Microsoft® Excel 2000 (Microsoft Corp.) was used for summing up or calculating data and preparing figures and tables. […] This EC50 value was used to calculate the concentration ratio (CR) of EC50 when an antagonist was added (for each sample) to that when no antagonist was added (mean value of the whole control group) and the logarithmic value of CR-1 (log [CR-1]).
# Then, the added concentration of the antagonist was plotted on the X axis (logarithmic value) and log(CR-1) on the Y axis (Schild plot) to calculate the value of the X-axis intercept (pA2) and slope of the line using linear approximation (Schild regression^5). The slope was statistically compared with a slope of 1 (paired t-test; a probability level of less than 5% was considered significant). […] The mean and standard error were calculated for each data point obtained and indicated to two decimal places (or in 3 significant digit).
# [2] = tested on: uterine activity of anesthetized pregnant rats; experiment: Uterine motility of anesthetized pregnant rats (balloon method); format: in vivo, rat
# Procedure: Rats were anesthetized with urethane, and experiments were conducted based on balloon method. Uterine activity and mean blood pressure of dam were led to a pressure amplifier via a pressure transducer. As for heart rate, pulse waves were led to tachometer. Recti-graphs were used for recording. The test substance, control substance, or positive control substance was administered intravenously and cumulatively every 15 minutes, while doses were increased gradually.
# [3] = tested on: women with severe primary dysmenorrhea; experiment: Transdermal administration of MN-221 in women with severe primary dysmenorrhea (double-blind cross-over trial); format: in vivo, human
# Procedure: The study is conducted in women, aged 15-39 years. Some of them are nulliparous and some are parous. All have regular 25-32 day cycles. They have all suffered from severe dysmenorrhea for more than one year. All the women are incapacitated for 1-2 days every month. During the first menstrual day they have continuous low abdominal pain of varying severity and in some women it is accompanied by nausea and vomiting.
# All the women are informed and give their consent before the trial is started. The study is performed as a double-blind cross-over trial in which the patients are given, in random order, MN-221 transdermal patches during one menstrual period and placebo patches of identical appearance during the next period. The patients return to the hospital after the end of each menstrual flow and their dysmenorrheic symptoms are assessed. The therapeutic effect is also assessed and graded as none, weak, and moderate, over to good and very good. All women in the study have signs of ovulation—mid-cycle temperature rise—in the menstrual cycle preceding the trial. The MN-221 or the placebo is given as a five day transdermal patch during menstrual pains. MN-221 is administered as a dose in a range of about 0.02 mg/kg to 1.5 mg/Kg. The volume of the menstrual blood loss is calculated from the hemoglobin content of all the sanitary towels used by the patient and delivered to the department.
# [4] = inhibition of uterine motility, anesthetized pregnant rats
structure (smiles),measurement,setting,value
"CN(C)C(=O)COc1ccc2c(c1)C[C@@H](NC[C@H](O)c1ccc(O)c(CCO)c1)CC2 [MN-221, (−)-bis(2-{[(2S)-2-({(2R)-2-hydroxy-2-[4-hydroxy-3-(2-hydroxyethyl)phenyl]ethyl}amino)-1,2,3,4-tetrahydronaphthalen-7-yl]oxy}-N,N-dimethyl-acetamide) monosulfate]",EC50,"[1]; MN-221, control group (treated with distilled water), read-out: EC50",0.843 ± 0.221 nM
same,EC50,"[1]; MN-221, control group (treated with distilled water), read-out: pD2 (converted)",0.676 nM
same,EC50,"[1]; MN-221 after pretreatment with CGP 20712A 1 × 10^−8 mol/L, read-out: EC50",0.868 ± 0.15 nM
same,EC50,"[1]; MN-221 after pretreatment with CGP 20712A 1 × 10^−8 mol/L, read-out: pD2 (converted)",0.692 nM
same,EC50,"[1]; MN-221 after pretreatment with CGP 20712A 1 × 10^−9 mol/L, read-out: EC50",1.25 ± 0.148 nM
same,EC50,"[1]; MN-221 after pretreatment with CGP 20712A 1 × 10^−9 mol/L, read-out: pD2 (converted)",1.15 nM
same,EC50,"[1]; MN-221 after pretreatment with CGP 20712A 3 × 10^−9 mol/L, read-out: EC50",1.05 ± 0.278 nM
same,EC50,"[1]; MN-221 after pretreatment with CGP 20712A 3 × 10^−9 mol/L, read-out: pD2 (converted)",0.692 nM
same,EC50,"[1]; MN-221 after pretreatment with ICI 118,551 1 × 10^−8 mol/L, read-out: EC50",23.1 ± 6.39 nM
same,EC50,"[1]; MN-221 after pretreatment with ICI 118,551 1 × 10^−8 mol/L, read-out: pD2 (converted)",16.6 nM
same,EC50,"[1]; MN-221 after pretreatment with ICI 118,551 3 × 10^−8 mol/L, read-out: EC50",50.9 ± 12.7 nM
same,EC50,"[1]; MN-221 after pretreatment with ICI 118,551 3 × 10^−8 mol/L, read-out: pD2 (converted)",28.8 nM
same,EC50,"[1]; MN-221 after pretreatment with ICI 118,551 3 × 10^−9 mol/L, read-out: EC50",4.6 ± 1.26 nM
same,EC50,"[1]; MN-221 after pretreatment with ICI 118,551 3 × 10^−9 mol/L, read-out: pD2 (converted)",2.95 nM
same,EC50,"[1]; MN-221 after pretreatment with SR 59230A 1 × 10^−8 mol/L, read-out: EC50",1.54 ± 1.08 nM
same,EC50,"[1]; MN-221 after pretreatment with SR 59230A 1 × 10^−8 mol/L, read-out: pD2 (converted)",0.447 nM
same,EC50,"[1]; MN-221 after pretreatment with SR 59230A 3 × 10^−8 mol/L, read-out: EC50",1.79 ± 0.499 nM
same,EC50,"[1]; MN-221 after pretreatment with SR 59230A 3 × 10^−8 mol/L, read-out: pD2 (converted)",1.07 nM
same,EC50,"[1]; MN-221 after pretreatment with SR 59230A 3 × 10^−9 mol/L, read-out: EC50",1.24 ± 0.338 nM
same,EC50,"[1]; MN-221 after pretreatment with SR 59230A 3 × 10^−9 mol/L, read-out: pD2 (converted)",0.955 nM
same,inhibition of uterine motility,"[2]; anesthetized pregnant rats, intravenous cumulative dosing",inhibited uterine motility dose-dependently
same,potency relative to HSR-81,[2]; [4],approximately 4 times
same,potency relative to ritodrine,[2]; [4],approximately 400 times
same,potency relative to terbutaline,[2]; [4],approximately 5.5 times
same,ED30 values,"[2]; uterine motility, intravenous cumulative dosing every 15 minutes, urethane-anesthetized pregnant rats",0.13 µg/kg/min
same,therapeutic response (relief) compared to placebo,"[3]; five day transdermal patch, about 0.02 mg/kg to 1.5 mg/Kg",positive response with relief in women as compared to placebo
same,"increase in heart rate, blood pressure, palpitations, tremors, and/or flushes","[3]; transdermal patch, all subjects","substantially no increase in heart rate, blood pressure, palpitations, tremors, and/or flushes"
